The record followed here is patent US20080206222A1, “Preventive/Therapeutic Composition For Free Radical Disease” (priority 2004, published 2008).

Data set [1] concerns rat coronary artery occlusion model. Briefly: Test for comparative effect on organ failure (versus human Cu-Zn SOD). It is filed as in vivo. Conditions: 5 mg/kg intravenously before occlusion and once daily for 5 days; dissection after 10 days; control Ringer's solution with human Cu-Zn SOD. How it is done: A rat coronary artery occlusion model was subjected to systemic ischemia for 5 minutes, followed by reperfusion. When the level of free radical-dependent chemiluminescence in the peripheral blood was measured using a chemical luminescence manufactured by Showa Denko K. K. from the start of this experiment, a significant increase in the level of free radical was observed from immediately after the initiation of reperfusion. In a test group, the injectable solution of Example 2 was intravenously administered to the rat at 5 mg/kg at 15 minutes before the occlusion of the coronary artery of the rat in advance, and in a control group, a Ringer's solution supplemented with human Cu—Zn SOD was injected in the same manner as in the test group. Also after the initiation of reperfusion, the above pharmaceutical composition of the present invention was injected at the same dose once daily for 5 days, and after 10 days, dissection was carried out, and cardiac, hepatic, renal, pancreatic and cystic cell necrosis indices were determined using a 45 Ca-autoradiography/image analyzer.

Data set [2] concerns human fibrosarcoma cell line HT1080. Put plainly: Test for cell migration (cell haptotaxis), Boyden double chamber. It is filed as cell-based. The conditions noted are these: HT1080, administered at 300 μM; coulometry and HPLC with ECD. The procedure:
A Boyden double chamber was used, in which a porous film with 8 μm pores was placed, the upper surface of the porous film was coated with Matrigel as a reconstituted basement membrane, the lower surface of the porous film was coated with fibronectin as an extracellular matrix. […] Further, the concentration of ascorbic acid present in the cells was determined by coulometry and HPLC with ECD.

Data set [3] can be described thus: Stability test in aqueous solution (HPLC residual ratio). Conditions: 0.1% aqueous solution in purified water, room temperature. Format: physicochemical. How it is done: A difference in the stabilities of PVP/fullerene (molecular weight of PVP: 60,000), a fullerene monoester, and salts of a fullerene monoester in an aqueous solution (a storage test at room temperature for 10 days) is shown in Table 7. […] Incidentally, the stability was evaluated by determining the residual ratio of the above substance using the HPLC method by leaving a 0.1% aqueous solution of the above substance (in purified water) at room temperature for 10 days.

Data set [4] deals with Bovine aortic endothelial cells BAE2. Conditions: 22 h, 50 μM.
Method: Bovine aortic endothelial cells BAE2 were inoculated at a cell density of 8×10^4/cm^2, and after 18 hours, each of a fullerene, ascorbic acid and the fullerenes of the invention of this application of the formulation Nos. 1 to 13 shown in the above Table 1 was administered at a concentration of 50 μM which falls within the range of the level of the respective substances in the normal human blood. After 22 hours, the amounts of fullerenes and ascorbic acid present in the cells were determined by coulometry and HPLC (high-performance liquid chromatography) with ECD (electrochemical detection). The water content in the cells was measured by gas chromatography using 14C-labeled polyethylene glycol and found to be 0.598 μL/cell.

Regarding “human Cu—Zn SOD: human Cu—Zn SOD added to Ringer's solution for the control group”, in data set [1], the “necrosis of cardiac, hepatic, renal, pancreatic and cystic cells (45Ca-autoradiography/image analyzer)” value is recorded as “delayed cell death”.
As for `O=C1O[C@H]([C@@H](O)CO)C(O)=C1O` [Ascorbic acid], the “concentration of ascorbic acid present in the cells” value in data set [2] is 103 µM. In data set [3], the “Residual ratio after 10 days (%)” value stood at 0%. In data set [4], the “concentration in the cells” value amounted to 60 µM and the “concentration in the cells relative to that outside the cells” value came out at 1.2 times.
